≈ marks a conversion by molar mass, not a printed value. *1 amine or outer side, *2 acyl side, *3 side chain or, on linkers, in order; H or OH if unused. Where a SMILES comes first, the peptide text is derived from it. [ ]: non-standard residue; d: D form. The star is where a group is joined. DAMPA = CN(Cc1cnc2nc(N)nc(N)c2n1)c1ccc(C(=O)*)cc1; Orn(N5-OH,N5-Ac) = CC(=O)N(O)CCC[C@H](N)C(=O)O; d(γGlu) = O=C(O)[C@@H](CCC(=O)[*:2])N[*:1]; Ethylenediamine = C(CN[*:2])N[*:1]
Experiments:
[1] = system: clinical Streptococcus pneumoniae; test: MIC determination on Streptococcus pneumoniae by the microdilution broth method; assay type: cell-based; settings: MH broth II with horse blood and 2,2-bipyridine, 16-18 hours; for MIC against Streptococcus pneumoniae 180918016-S27: clinical strain 180918016-S27; for MIC against Streptococcus pneumoniae 180918017-S28: clinical strain 180918017-S28
Description: The minimum inhibitory concentration (MIC) determination was performed in accordance with the standards of the American Association for Clinical and Laboratory Standards (CLSIM07). The MIC determination on Streptococcus pneumoniae was carried out by the microdilution broth method as follows. First, the compound to be tested was dissolved in water to prepare a high-concentration original solution, and then the compound original solution was sequentially diluted by 2 folds, a total of 10 times, to prepare 11 samples of 10× working solution. Then the gradient dilutions of the compound were transferred to a 96-well round bottom plate, the first to eleventh wells contained 10 μL of the 11 samples of 10× working solution prepared above, respectively, and 10 μL of water was added to the twelfth well as a solvent control.

[2] = Cytotoxicity test, MTT colorimetric method, L02; assay type: cell-based; settings: human
Description: (§1) The cytotoxicity test was carried out with the MTT colorimetric method. 5×10^3 cells in a logarithmic growth phase were inoculated in each well of a 96-well plate, and incubated overnight at 37° C. in an incubator (5% CO2). Then, different concentrations of compounds were added and the incubation further continued for 72 hours. Finally, 10 μL of MTT solution was added to each well and he incubation further continued for 4 hours. Then, the culture medium in each well was carefully aspirated. 100 μL of dimethyl sulfoxide was added to each well, and shaken at low speed for 10 minutes on a shaker to fully dissolve crystals. The absorbance of each well was measured at OD490 nm of the enzyme-linked immunometric meter. Three parallel measurements were designed for each group, in order to calculate the standard deviation. Cell survival rate=(compound-treated OD value−blank control OD value)/(normal control OD value−blank control OD value)*100%
(§2) The toxicity of each compound was tested by measuring the half inhibitory concentrations (IC50) with respect to human normal hepatocytes (L02), human umbilical vein endothelial cells (HUVEC) and human renal epithelial cells (293T), respectively.

[3] = Cytotoxicity test, MTT colorimetric method, HUVEC; assay type: cell-based; settings: human
Description: as §1, §2

[4] = Cytotoxicity test, MTT colorimetric method, 293T; assay type: cell-based; settings: human
Description: as §1, §2

[5] = system: human normal hepatocytes, human umbilical vein endothelial cells and human renal epithelial cells; test: Cytotoxicity test, overall statement across the three normal human cell types; assay type: cell-based; settings: L02, HUVEC and 293T; compared with methotrexate
Description: as §1, §2

Enterococcus = settings: cited from earlier work
Streptococcus pneumoniae = settings: background statement; cited from earlier work

SMILES	MIC against Streptococcus pneumoniae 180918016-S27 [1]	MIC against Streptococcus pneumoniae 180918017-S28 [1]	IC50 at 72 h [2]	IC50 at 72 h [3]	IC50 at 72 h [4]	Toxicity to normal human cells (in words) [5]	IC50 at 72 h ([2]; L02 cells (human normal hepatocytes), L02 cells, MTT, 72 hours, read-out: Cytotoxicity IC50 L02)	IC50 at 72 h ([3]; HUVEC (human umbilical vein endothelial cells), HUVEC cells, MTT, 72 hours, read-out: Cytotoxicity IC50 HUVEC)	IC50 at 72 h ([4]; 293T cells (human renal epithelial cells), 293T cells, MTT, 72 hours, read-out: Cytotoxicity IC50 293T)	MIC against Enterococcus (Enterococcus)	MIC against Streptococcus pneumoniae (Streptococcus pneumoniae)
CC(=O)N(O)CCCC[C@H](NC(=O)[C@H](CCCCN(O)C(C)=O)NC(=O)[C@@H](N)CCCCN(O)C(C)=O)C(=O)NCCOCCOCCNC(=O)CC[C@H](NC(=O)c1ccc(N(C)Cc2cnc3nc(N)nc(N)c3n2)cc1)C(=O)O [3-4v]	<0.0078	<0.0078	–	–	–	–	–	–	–	–	–
CCC(=O)N(O)CCCC[C@H](NC(=O)[C@H](CCCCN(O)C(=O)CC)NC(=O)[C@@H](N)CCCCN(O)C(=O)CC)C(=O)NCCOCCOCCNC(=O)CC[C@H](NC(=O)c1ccc(N(C)Cc2cnc3nc(N)nc(N)c3n2)cc1)C(=O)O [3-4x]	<0.0078	<0.0078	–	–	–	–	–	–	–	–	–
CC(=O)N(O)CCC[C@H](NC(=O)[C@H](CCCN(O)C(C)=O)NC(=O)[C@@H](N)CCCN(O)C(C)=O)C(=O)NCCCCCNC(=O)CC[C@@H](NC(=O)c1ccc(N(C)Cc2cnc3nc(N)nc(N)c3n2)cc1)C(=O)O [3-4b]	0.0625	<0.0078	34.6 ± 14.5 µM	31 ± 3.18 µM	8.82 ± 0.08 µM	least toxicity	–	–	–	–	–
CC(=O)N(O)CCC[C@H](NC(=O)[C@H](CCCN(O)C(C)=O)NC(=O)[C@@H](N)CCCN(O)C(C)=O)C(=O)NCCNC(=O)[C@H](CO)NC(=O)[C@H](CO)NC(=O)CC[C@@H](NC(=O)c1ccc(N(C)Cc2cnc3nc(N)nc(N)c3n2)cc1)C(=O)O [3-4g]	<0.0078	<0.0078	27 ± 2.88 µM	18.4 ± 1.82 µM	5.38 ± 0.65 µM	least toxicity	–	–	–	–	–
CC(=O)N(O)CCC[C@H](NC(=O)[C@H](CCCN(O)C(C)=O)NC(=O)[C@@H](N)CCCN(O)C(C)=O)C(=O)NCCNC(=O)[C@H](CCCCN)NC(=O)CC[C@@H](NC(=O)c1ccc(N(C)Cc2cnc3nc(N)nc(N)c3n2)cc1)C(=O)O [3-4h]	–	–	34.5 ± 4.01 µM	16.6 ± 2 µM	10.6 ± 1.34 µM	least toxicity	–	–	–	–	–
CC(=O)N(O)CCC[C@H](NC(=O)[C@H](CCCN(O)C(C)=O)NC(=O)[C@@H](N)CCCN(O)C(C)=O)C(=O)N[C@@H](CO)C(=O)NCCNC(=O)CC[C@@H](NC(=O)c1ccc(N(C)Cc2cnc3nc(N)nc(N)c3n2)cc1)C(=O)O [3-4f] (H-[Orn(N5-OH,N5-Ac)][Orn(N5-OH,N5-Ac)][Orn(N5-OH,N5-Ac)]S-{Ethylenediamine-d(γGlu)-DAMPA})	<0.0078	<0.0078	14.7 ± 1.7 µM	19.2 ± 0.54 µM	3.93 ± 0.03 µM	–	–	–	–	–	–
CN(Cc1cnc2nc(N)nc(N)c2n1)c1ccc(C(=O)N[C@@H](CCC(=O)O)C(=O)O)cc1 [Methotrexate, reference compound]	0.125	0.03125	–	–	–	–	0.01 µM	< 0.0781 µM	0.01 µM	4 µM (≈ 1.82 µg/mL)	0.5 µM (≈ 0.227 µg/mL)
CC(=O)N(O)CCC[C@H](NC(=O)[C@H](CCCN(O)C(C)=O)NC(=O)[C@@H](N)CCCN(O)C(C)=O)C(=O)NCCOCCOCCNC(=O)CC[C@@H](NC(=O)c1ccc(N(C)Cc2cnc3nc(N)nc(N)c3n2)cc1)C(=O)O [3-4c]	<0.0078	<0.0078	5.46 ± 2.18 µM	4.52 ± 0.21 µM	2.66 ± 0.01 µM	–	–	–	–	–	–
CN[C@H](CC(C)C)C(=O)N[C@H]1C(=O)N[C@@H](CC(N)=O)C(=O)N[C@H]2C(=O)N[C@H]3C(=O)N[C@H](C(=O)N[C@H](C(=O)O)c4cc(O)cc(O)c4-c4cc3ccc4O)[C@H](O)c3ccc(c(Cl)c3)Oc3cc2cc(c3O[C@@H]2O[C@H](CO)[C@@H](O)[C@H](O)[C@H]2O[C@H]2C[C@](C)(N)[C@H](O)[C@H](C)O2)Oc2ccc(cc2Cl)[C@H]1O [Vancomycin, reference compound]	0.25	0.125	–	–	–	–	–	–	–	–	–

Source: patent publication US12622974B2, “Siderophore-dihydrofolate reductase inhibitor conjugate and application thereof” (priority 2020, dated 2026)
